The results in this text go back to patent publication US8242280B2, “Fused ring heterocycle kinase modulators” (SGX Pharmaceuticals, Inc., priority 2007, dated 2012).

Molecules are shown by their SMILES.

One experiment deals with Ba/F3 cells, ABL1 T315I (Homo sapiens, UniProt P00519, T315I, cells depend on it). Put plainly: 96-well XTT cell survival assay, Ba/F3 ABL1 T315I. The note with it: 72 hours, read-out: ABL1 T315I XTT [Ba/F3] IC50. It counts as cell-based. In short, it runs like this:
(§1)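 Ba/F3 cells carrying wild-type or T315I ABL1 were seeded at 5000-8000 per well with graded compound concentrations in duplicate and grown 72 hours at 37° C. Survival was read by XTT/PMS reduction after a further 2-6 h, as absorbance at 405 nm with 650 nm background correction.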
Background: Tetrazolium dyes change colour on reduction, which living cells bring about.

The next experiment addresses Ba/F3 cells, ABL1 WT (Homo sapiens, UniProt P00519). Kind of experiment: 96-well XTT cell survival assay, Ba/F3 ABL1 WT. The class given is cell-based. Conditions: 72 hours, read-out: ABL1 WT XTT [Ba/F3] IC50. In short, it runs like this: as §1
The target in experiment [1] is T1, unphosphorylated T315I Abl kinase domain (Mus musculus, UniProt P00520, T315I).
T1 construct: purified and unphosphorylated T315I Abl kinase domain; made in house; host or cells: E. coli BL21(DE3) (Codon+RIL or pSA0145 strain)
T1 sequence (P00520 242-493 T315I limits assumed): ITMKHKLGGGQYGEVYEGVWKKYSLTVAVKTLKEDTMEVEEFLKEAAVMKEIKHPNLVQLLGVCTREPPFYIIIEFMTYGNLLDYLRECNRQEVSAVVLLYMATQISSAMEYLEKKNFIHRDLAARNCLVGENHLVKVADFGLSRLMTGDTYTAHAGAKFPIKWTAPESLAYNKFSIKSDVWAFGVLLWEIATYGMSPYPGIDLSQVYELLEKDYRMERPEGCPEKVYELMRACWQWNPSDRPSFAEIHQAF
Kind of experiment: c-Abl T315I 0P bioassay (pyruvate kinase/lactate dehydrogenase coupled enzyme assay). The note with it: zero phosphorylation state (0P), 10 μM ATP, read-out: AbI T315I 0P IC50. It counts as biochemical.

One may read the IC50 as the concentration needed to halve the response being measured. For `COc1ccccc1-c1n[nH]c2ncc(-c3cccc(C(O)C(=O)NCCN(C)C)c3)cc12` (stereo not drawn), the GI50 at Ba/F3 cells, ABL1 T315I was over 1000 nM; at Ba/F3 cells, ABL1 WT, under 1000 nM. In experiment [1], the IC50 is under 50 nM.

As to `COc1ccccc1-c1n[nH]c2ncc(-c3cccc(C(O)C(N)=O)c3)cc12` (stereo not drawn), the GI50 on Ba/F3 cells, ABL1 T315I was under 1000 nM; on Ba/F3 cells, ABL1 WT, under 1000 nM. For the same compound, the IC50 in experiment [1] is under 50 nM.

`COc1ccccc1-c1n[nH]c2ncc(-c3cccc(C(O)C(=O)N(C)C4CCN(C)C4)c3)cc12` (stereo not drawn): the GI50 on Ba/F3 cells, ABL1 T315I was under 1000 nM; on Ba/F3 cells, ABL1 WT, under 1000 nM. Moreover, in experiment [1], the IC50 is under 50 nM.

For `COc1ccccc1-c1n[nH]c2ncc(-c3cccc(C(O)C(=O)N(C)C4CCS(=O)(=O)C4)c3)cc12` (stereo not drawn), the GI50 on Ba/F3 cells, ABL1 T315I is over 1000 nM; on Ba/F3 cells, ABL1 WT it was under 1000 nM. In experiment [1], the IC50 is under 50 nM.

Turning to `COc1ccccc1-c1c[nH]c2ncc(-c3cccc(C(N)C(=O)N(C)C)c3)cc12` (stereo not drawn), the GI50 is under 1000 nM at Ba/F3 cells, ABL1 T315I and under 1000 nM on Ba/F3 cells, ABL1 WT. In experiment [1], the IC50 is under 50 nM.

Consider `COc1ccccc1-c1c[nH]c2ncc(-c3cccc(C(N)C(=O)N(C)CCN(C)C)c3)cc12` (stereo not drawn), for which the GI50 was over 1000 nM on Ba/F3 cells, ABL1 T315I and over 1000 nM at Ba/F3 cells, ABL1 WT. The half-maximal inhibitory concentration (IC50) in experiment [1] was under 50 nM.

On to `CN(C)C(=O)C(O)c1cncc(-c2cnc3[nH]cc(-c4cccc(Cl)c4)c3c2)c1` (stereo not drawn) [drawing 431], for which the GI50 was under 1000 nM at Ba/F3 cells, ABL1 T315I and under 1000 nM at Ba/F3 cells, ABL1 WT. Also, the IC50 in experiment [1] was under 50 nM.

Regarding `CN(C)C(=O)C(O)c1cncc(-c2cnc3[nH]cc(-c4ccnn4C)c3c2)c1` (stereo not drawn) [drawing 464], the GI50 was over 1000 nM on Ba/F3 cells, ABL1 T315I and over 1000 nM on Ba/F3 cells, ABL1 WT. Besides, the IC50 in experiment [1] lay within 50 to 500 nM.

Take `CN(C)C(=O)C(O)c1cncc(-c2cnc3[nH]cc(-c4ccnn4C)c3c2)c1` (stereo not drawn) [drawing 465]: the GI50 was over 1000 nM at Ba/F3 cells, ABL1 T315I and over 1000 nM at Ba/F3 cells, ABL1 WT. Further, the IC50 in experiment [1] is under 50 nM.
